Measured values from article PMC6264278, “Corydaline Inhibits Multiple Cytochrome P450 and UDP-Glucuronosyltransferase Enzyme Activities in Human Liver Microsomes” (Molecules, 2011).
Like-named read-outs stand apart in the source and are kept apart here.

Experiments:
Format in all cases: in vitro ADME
CYP3A = target: T1, CYP3A (Homo sapiens, UniProt P08684); assay: CYP3A midazolam 1'-hydroxylation inhibition, cocktail assay in pooled human liver microsomes; settings: 2.5 μM midazolam
T1 construct: using pooled human liver microsomes; tissue BD Gentest Co. H161; host or cells: pooled human liver microsomes
T1 sequence (P08684 2-503): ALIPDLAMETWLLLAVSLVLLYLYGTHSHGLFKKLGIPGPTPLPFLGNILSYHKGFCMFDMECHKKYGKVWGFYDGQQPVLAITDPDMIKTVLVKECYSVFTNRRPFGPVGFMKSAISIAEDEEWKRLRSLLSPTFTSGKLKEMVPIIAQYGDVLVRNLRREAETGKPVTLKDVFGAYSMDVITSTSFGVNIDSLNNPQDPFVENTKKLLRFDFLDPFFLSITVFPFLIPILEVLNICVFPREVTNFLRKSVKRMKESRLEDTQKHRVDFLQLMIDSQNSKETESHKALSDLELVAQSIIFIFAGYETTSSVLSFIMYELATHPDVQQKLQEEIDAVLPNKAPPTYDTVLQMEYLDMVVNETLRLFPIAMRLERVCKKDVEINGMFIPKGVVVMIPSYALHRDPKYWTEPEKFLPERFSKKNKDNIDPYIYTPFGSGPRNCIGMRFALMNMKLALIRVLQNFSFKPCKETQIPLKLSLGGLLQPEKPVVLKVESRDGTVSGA
Procedure: (§1) Phenacetin O-deethylase, coumarin 7-hydroxylase, amodiaquine N-deethylase, diclofenac 4-hydroxylase, S-mephenytoin 4-hydroxylase, bufuralol hydroxylase, and midazolam 1’-hydroxylase activities were determined as probe activities for CYP1A2, CYP2A6, CYP2C8, CYP2C9, CYP2C19, CYP2D6, and CYP3A4, respectively, using cocktail incubation and liquid chromatography-tandem mass spectrometry (LC/MS/MS). The incubation mixtures were prepared in a total volume of 200 μL, as follows: pooled human liver microsomes (0.25 mg/mL), 1.3 mM NADPH, 3.3 mM MgCl2, 50 mM potassium phosphate buffer (pH 7.4), and a cocktail of probe substrates and various concentrations of corydaline (1−200 μM). The substrates were used at concentrations approximately equal to their respective Km values: 50 μM phenacetin, 2.5 μM coumarin, 2.5 μM amodiaquine, 10 μM diclofenac, 100 μM S-mephenytoin, 5 μM bufuralol, and 2.5 μM midazolam. After a 3-min pre-incubation period at 37 °C, the reactions were initiated by addition of an NADP generating system and incubated for 20 min at 37 °C in a shaking water bath. After incubation, the reaction was stopped by placement of the tubes on ice and addition of 100 μL of ice-cold methanol containing internal standards (^13C2,^15N-acetaminophen for acetaminophen and N-desethylamodiaquine, d5-7-hydroxycoumarin for 7-hydroxycoumarin, ^13C6-4-hydroxydiclofenac for 4-hydroxydiclofenac, d3-4-hydroxy-mephenytoin for 4-hydroxymephenytoin and hydroxymidazolam, d9-1-hydroxybufuralol for 1-hydroxybufuralol). The incubation mixtures were then centrifuged at 13,000 × g for 5 min. All incubations were performed in triplicate and the mean values were used. […] The reaction was started by addition of a cocktail of CYP probe substrates.
(§2) All 7 metabolites produced from the cocktail of CYP isoform-specific substrates were simultaneously determined by LC/MS/MS [25]. […] Quantification was performed by selected reaction monitoring (SRM) of the [M+H]^+ ion and the related product ion for each metabolite. […]

CYP2A6 = target: T2, CYP2A6 (Homo sapiens, UniProt P11509); assay: CYP2A6 coumarin 7-hydroxylation inhibition, cocktail assay in pooled human liver microsomes; settings: 2.5 μM coumarin, no inhibition at 200 μM of corydaline; for IC50 no preincubation, CYP2A6 coumarin 7-hydroxylation: pooled human liver microsomes (H161)
T2 construct: using pooled human liver microsomes; tissue BD Gentest Co. H161; host or cells: pooled human liver microsomes
T2 sequence (P11509 1-494): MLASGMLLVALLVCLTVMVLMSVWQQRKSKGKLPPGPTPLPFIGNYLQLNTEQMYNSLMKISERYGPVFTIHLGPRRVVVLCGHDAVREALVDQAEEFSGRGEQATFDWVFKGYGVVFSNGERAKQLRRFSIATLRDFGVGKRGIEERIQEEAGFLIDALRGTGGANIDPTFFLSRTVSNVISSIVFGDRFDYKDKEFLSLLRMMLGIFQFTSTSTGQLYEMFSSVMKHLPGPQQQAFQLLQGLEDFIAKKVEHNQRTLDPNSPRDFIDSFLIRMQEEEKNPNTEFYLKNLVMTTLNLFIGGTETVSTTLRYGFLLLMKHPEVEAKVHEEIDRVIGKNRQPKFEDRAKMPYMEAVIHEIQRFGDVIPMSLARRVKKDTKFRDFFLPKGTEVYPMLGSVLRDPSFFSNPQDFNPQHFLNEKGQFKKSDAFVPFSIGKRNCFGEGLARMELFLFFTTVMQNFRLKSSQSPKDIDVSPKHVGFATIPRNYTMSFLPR
Procedure: as §1, §2

CYP2D6 = target: T3, CYP2D6 (Homo sapiens, UniProt P10635); assay: CYP2D6 bufuralol 1'-hydroxylation inhibition in pooled human liver microsomes; settings: for inhibition mode, CYP2D6 bufuralol 1'-hydroxylation: Lineweaver, Dixon and secondary reciprocal plots; for IC50: 5.0 μM bufuralol, mean ± SD, n = 3
T3 construct: using pooled human liver microsomes; tissue BD Gentest Co. H161; host or cells: pooled human liver microsomes
T3 sequence (P10635 whole entry): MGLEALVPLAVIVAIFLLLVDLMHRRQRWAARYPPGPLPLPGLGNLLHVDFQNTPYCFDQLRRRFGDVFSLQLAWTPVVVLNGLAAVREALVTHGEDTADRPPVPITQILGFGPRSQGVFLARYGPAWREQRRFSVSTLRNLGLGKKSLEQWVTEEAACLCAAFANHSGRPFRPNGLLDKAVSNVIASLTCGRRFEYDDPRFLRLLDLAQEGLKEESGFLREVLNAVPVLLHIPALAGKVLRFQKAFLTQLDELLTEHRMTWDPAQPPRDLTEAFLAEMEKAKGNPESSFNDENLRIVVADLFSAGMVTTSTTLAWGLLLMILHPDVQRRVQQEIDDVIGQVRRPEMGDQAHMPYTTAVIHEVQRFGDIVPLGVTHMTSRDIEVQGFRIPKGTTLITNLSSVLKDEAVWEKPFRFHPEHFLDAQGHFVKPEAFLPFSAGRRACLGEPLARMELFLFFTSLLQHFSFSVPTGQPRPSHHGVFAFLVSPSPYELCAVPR
Procedure: as §1
All 7 metabolites produced from the cocktail of CYP isoform-specific substrates were simultaneously determined by LC/MS/MS [25]. The system consisted of a tandem quadrupole mass spectrometer (TSQ Quantum Access, ThermoFisher Scientific, San Jose, CA, USA) coupled with a Nanospace SI-2 LC system. Separation was performed on an Atlantis dC18 column (5 μm, 2.1 mm i.d. ×100 mm, Waters, Milford, MA, USA) using the gradient elution of a mixture of 5% methanol in 0.1% formic acid (mobile phase A) and 95% methanol in 0.1% formic acid (mobile phase B) at a flow rate of 0.25 mL/min: 10% mobile phase B for 1 min, 10% to 95% mobile phase B for 1 min, 95% mobile phase B for 5 min. The column and autosampler temperatures were 50 and 6 °C, respectively. After 1.5 min, the LC eluent was diverted from waste to the mass spectrometer fitted with the electrospray ionization (ESI) source and operated in positive ion mode. […] Quantification was performed by selected reaction monitoring (SRM) of the [M+H]^+ ion and the related product ion for each metabolite. […]
Reactions were initiated by addition of NADPH at 37 °C and stopped after 15 min by placement of the incubation tubes on ice and addition of ice-cold methanol (100 μL) containing an internal standard (2.0 μg/mL ^13C6-4-hydroxydiclofenac for diclofenac, 0.5 μg/mL d3-4-hydroxymephenytoin for mephenytoin, or 0.5 μg/mL d9-1-hydroxy-bufuralol for bufuralol). The incubation mixtures were centrifuged at 13,000 × g for 5 min, and aliquots (5 μL) of the supernatants were analyzed by LC/MS/MS. […] Aliquots (5 μL) were analyzed by LC/MS/MS. […]

IC50 no preincubation, CYP3A midazolam 1'-hydroxylation (CYP3A; pooled human liver microsomes (H161)): negligible inhibition
IC50 (CYP3A; pooled human liver microsomes (H161), read-out: IC50 no preincubation, CYP3A midazolam 1'-hydroxylation): > 200 µM
IC50 (CYP3A; pre-incubated 30 min with NADPH, mean ± SD, n = 3, read-out: IC50 with preincubation, CYP3A midazolam 1'-hydroxylation): 67.4 ± 9.8 µM
IC50 no preincubation, CYP2A6 coumarin 7-hydroxylation (CYP2A6): negligible inhibition
IC50 no preincubation, CYP2A6 coumarin 7-hydroxylation (CYP2A6; listed as corydaline): No inhibition **
IC50 with preincubation, CYP2A6 coumarin 7-hydroxylation (CYP2A6; pre-incubated 30 min with NADPH): No inhibition **
inhibition mode, CYP2D6 bufuralol 1'-hydroxylation (CYP2D6): competitively
inhibition mode, CYP2D6 bufuralol 1'-hydroxylation (CYP2D6; listed as corydaline): competitive
Ki (CYP2D6; human liver microsomes, 0.5-5 μM bufuralol): 27.3 ± 0.7 µM
IC50 (CYP2D6; pooled human liver microsomes (H161), read-out: IC50 no preincubation, CYP2D6 bufuralol 1'-hydroxylation): 64.5 ± 9.8 µM
IC50 (CYP2D6; pre-incubated 30 min with NADPH, read-out: IC50 with preincubation, CYP2D6 bufuralol 1'-hydroxylation): 116 ± 7.6 µM
Structure (SMILES): COc1cc2c(cc1OC)C1C(C)c3ccc(OC)c(OC)c3CN1CC2 (centres unmarked) [Corydaline, 2,3,9,10-tetramethoxy-13-methyl-5,8,13,13a-tetrahydro-6H-isoquino[3,2-a]isoquinoline]
